These results are taken from patent US11859087B2, “Fluorescent dye, preparation method therefor, and application thereof” (SUZHOU BAIYUAN GENT CO., LTD., priority 2018, dated 2024).

Counter-ions that a name gives are not always drawn.

Series [1] can be described thus: Determination of the absorption spectrum of fluorescent dyes. It is filed as physicochemical. The following applies: 1.0×10^−5 mol/L in 50% by volume of ethanol. The source says: The compounds prepared in Example 1 and Examples 4-6 were accurately weighed to prepare a solution having a concentration of 1.0×10^−5 mol/L using 50% by volume of ethanol. In FIG. 2, 1 represents the intermediate prepared in Example 1, and 2-4 represent the compound prepared in Examples 4-6, respectively.

Series [2] is described as follows: Determination of the fluorescence spectrum of fluorescent dyes. In kind it is physicochemical. As to conditions: for λem (max/nm): ethanol and water (50:50, v/v), 1.0×10^−6 mol/L, excitation at maximum absorption wavelength. The procedure:
The fluorescence spectrum was measured using the maximum absorption wavelength in the measured near-infrared spectrum as the excitation wavelength of the fluorescence spectrum. The compounds prepared in Example 1 and Examples 4-6 were accurately weighed to prepare a solution of ethanol and water (50:50, v/v) at a concentration of 1.0×10^−6 mol/L. The emission spectrum of the solution was measured, and the result was shown in FIG. 1. In FIG. 1, 1 represents the intermediate prepared in Example 1, and 2-4 represent the compounds prepared in Examples 4-6, respectively.

The nature of series [3]: Determination of molar extinction coefficient by UV-visible absorption spectroscopy. It is filed as physicochemical. The following applies: A=εcl. The procedure: The molar extinction coefficient of the compound was determined by UV-visible absorption spectroscopy. The formula for calculating molar extinction coefficient is as shown in equation (1): A=εcl Equation (1), wherein A represents ultraviolet absorption value, ε represents molar extinction coefficient, c represents concentration of the compound, and l represents thickness of the quartz cell for detection.

The nature of series [4]: Determination of fluorescence quantum yield of fluorescent dyes. It is filed as physicochemical. As to conditions: 20° C., absolute ethanol, quinine sulfate as reference. Here is the method: The fluorescence quantum yield of the fluorescent dyes was determined at 20° C., and quinine sulfate (Solvent: 0.1M H2SO4, Quantum yield: 0.56) was used as a reference compound, then the fluorescence quantum yield was calculated by measuring fluorescence integral intensities obtained from the dilute solutions of the fluorescent dyes and the reference compound under the same excitation conditions and the ultraviolet absorption value at this excitation wavelength. The product was dissolved in absolute ethanol.
The formula for calculating fluorescence quantum yield is as shown in equation (2):
[formula] wherein Φ represents quantum yield of the compound to be measured, the subscript R represents reference compound, I represents fluorescence integral intensity, A represents ultraviolet absorption value, and η represents solvent refractive index. Generally, the ultraviolet absorption values A and AR are less than 0.1.

For series [5] the following is noted: reference compound, solvent 0.1M H2SO4; cited from earlier work.

Turning to `CC1(C)C(/C=C/C2=C(NCc3cccc(C(=O)O)c3)C(=C/C=C3/N(/C=C/Br)c4ccccc4C3(C)C)/CCC2)=[N+](/C=C/Br)c2ccccc21` [Example 6], the “λabs (max/nm)” value in series [1] is listed as 790 nm. Further, in series [2], the “Stokes shift (nm)” value is listed as 34 nm and the “λem (max/nm)” value worked out at 829 nm. Besides, in series [3], the “ε × 10^4 (M^−1 cm^−1)” value was 9.0 × 10^4 M^−1 cm^−1. In addition, the “Φ (%)” value in series [4] was 89.86%.
For `CC1(C)C(/C=C/C2=C(NCC(=O)O)C(=C/C=C3/N(/C=C/Br)c4ccccc4C3(C)C)/CCC2)=[N+](/C=C/Br)c2ccccc21` [Example 4] the same measures were 785 nm, 38 nm, 815 nm, 8.5 × 10^4 M^−1 cm^−1 and 84.99%.
For `C=C[C@H]1C[N@@]2CC[C@H]1C[C@H]2[C@H](O)c1ccnc2ccc(OC)cc12` [quinine sulfate], the Quantum yield in series [5] is 0.56.
Turning to `CC1(C)C(/C=C/C2=C(NCO)C(=C/C=C3/N(/C=C/Br)c4ccccc4C3(C)C)/CCC2)=[N+](/C=C/Br)c2ccccc21` [Example 5], the “λabs (max/nm)” value in series [1] amounted to 787 nm. In series [2], the “Stokes shift (nm)” value is recorded as 40 nm and the “λem (max/nm)” value came out at 820 nm. In addition, the “ε × 10^4 (M^−1 cm^−1)” value in series [3] was 8.6 × 10^4 M^−1 cm^−1. In addition, in series [4], the “Φ (%)” value amounted to 86.00%.
